We go through eight compounds from PubChem BioAssay AID248 (DTP/NCI, 2004).

Several values for one entry are separate records, joined by “and”; a condition that tells them apart may be missing. Equal entries are not always repeated. Toxic doses and inconclusive results are not listed.

The test concerns L1210 leukemia ip in BDF1 mice, survival T/C. The experiment in a line: NCI In Vivo Anticancer Drug Screen. Data for tumor model L1210 Leukemia (intraperitoneal) in B6D2F1 (BDF1) mice. As to conditions: endpoint: mean survival time, higher = longer survival. The essentials:
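Tumor cells were implanted, animals were treated, and survival was followed. The result divides the treated measurement by the vehicle-control measurement.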

The mark [1] stands for this setting: dose: 25.0 mg/kg/injection, schedule: Q01DX009 (ip), vehicle: saline.
[2] abbreviates: dose: 100.0 mg/kg/injection, schedule: Q04DX003 (ip), vehicle: saline.

Turning to `Nc1nc(F)nc2c1ncn2C1OC(CO)C(O)C1O` (centres undefined), the T/C is 106 % of control (dose: 0.75 mg/kg/injection, schedule: Q01DX Z (ip), vehicle: saline); 104 % of control (dose: 1.0 mg/kg/injection, schedule: Q01DX015 (ip), vehicle: saline); 112 % of control (dose: 1.5 mg/kg/injection, schedule: Q01DX Z (ip), vehicle: saline); 98 % of control (dose: 1.6 mg/kg/injection, schedule: Q01DX015 (ip), vehicle: saline); 96 % of control (dose: 2.4 mg/kg/injection, schedule: Q01DX015 (ip), vehicle: saline); 104 % of control (dose: 3.0 mg/kg/injection, schedule: Q01DX Z (ip), vehicle: saline). Besides, the T/C by setting is: (dose: 3.6 mg/kg/injection, schedule: Q01DX015 (ip), vehicle: saline) 96 % of control; (dose: 5.4 mg/kg/injection, schedule: Q01DX015 (ip), vehicle: saline) 87 % of control; (dose: 6.0 mg/kg/injection, schedule: Q01DX Z (ip), vehicle: saline) 113 % of control; (dose: 65.0 mg/kg/injection, schedule: Q03HX024 (ip), vehicle: saline with Tween-80) 205 % of control; (dose: 65.0 mg/kg/injection, schedule: Q06HX012 (ip), vehicle: saline with Tween-80) 160 % of control; (dose: 80.0 mg/kg/injection, schedule: Q03HX024 (ip), vehicle: saline with Tween-80) 291 % of control. For the same compound, the T/C runs as follows: (dose: 80.0 mg/kg/injection, schedule: Q06HX012 (ip), vehicle: saline with Tween-80) 177 % of control; (dose: 90.0 mg/kg/injection, schedule: Q03HX024 (ip), vehicle: saline with Tween-80) 276 % of control; (dose: 100.0 mg/kg/injection, schedule: Q01DX001 (ip), vehicle: saline) 105 % of control; (dose: 100.0 mg/kg/injection, schedule: Q03HX024 (ip), vehicle: saline with Tween-80) 301 % of control and 357 % of control (2×); (dose: 100.0 mg/kg/injection, schedule: Q03HX024 (oral), vehicle: saline with Tween-80) 160 % of control; (dose: 110.0 mg/kg/injection, schedule: Q03HX024 (ip), vehicle: saline with Tween-80) 157 % of control. The T/C is 100 % of control (dose: 125.0 mg/kg/injection, schedule: Q03HX024 (ip), vehicle: saline with Tween-80); 163 % of control (dose: 125.0 mg/kg/injection, schedule: Q06HX012 (ip), vehicle: saline with Tween-80); 83 % of control (dose: 150.0 mg/kg/injection, schedule: Q03HX024 (ip), vehicle: saline with Tween-80); 166 % of control (dose: 150.0 mg/kg/injection, schedule: Q03HX024 (oral), vehicle: saline with Tween-80); 181 % of control and 326 % of control (dose: 150.0 mg/kg/injection, schedule: Q06HX012 (ip), vehicle: saline with Tween-80); 107 % of control (dose: 200.0 mg/kg/injection, schedule: Q01DX001 (ip), vehicle: saline). Moreover, the T/C reads like this: (dose: 200.0 mg/kg/injection, schedule: Q06HX012 (ip), vehicle: saline with Tween-80) 219 % of control; (dose: 250.0 mg/kg/injection, schedule: Q06HX012 (ip), vehicle: saline with Tween-80) 122 % of control; (dose: 300.0 mg/kg/injection, schedule: Q01DX009 (ip), vehicle: saline with Tween-80) 86 % of control; (dose: 300.0 mg/kg/injection, schedule: Q12HX006 (ip), vehicle: saline with Tween-80) 204 % of control and 225 % of control; (dose: 350.0 mg/kg/injection, schedule: Q12HX006 (ip), vehicle: saline with Tween-80) 205 % of control; (dose: 400.0 mg/kg/injection, schedule: Q01DX001 (ip), vehicle: saline) 122 % of control. The T/C is, setting by setting: (dose: 400.0 mg/kg/injection, schedule: Q12HX006 (ip), vehicle: saline with Tween-80) 207 % of control and 288 % of control; (dose: 450.0 mg/kg/injection, schedule: Q12HX006 (ip), vehicle: saline with Tween-80) 228 % of control; (dose: 600.0 mg/kg/injection, schedule: Q04DX003 (ip), vehicle: saline with Tween-80) 186 % of control; (dose: 750.0 mg/kg/injection, schedule: Q12HX006 (ip), vehicle: saline with Tween-80) 106 % of control; (dose: 800.0 mg/kg/injection, schedule: Q04DX003 (ip), vehicle: saline with Tween-80) 200 % of control; (dose: 1000.0 mg/kg/injection, schedule: Q04DX003 (ip), vehicle: saline with Tween-80) 205 % of control.

In the case of `O=[N+]([O-])c1ccc(/C=N/c2nccs2)o1`, the T/C (dose: 1.56 mg/kg/injection, schedule: Q01DX009 (ip), vehicle: saline) is 88 % of control; the T/C (dose: 3.12 mg/kg/injection, schedule: Q01DX009 (ip), vehicle: saline) was 90 % of control; the T/C (dose: 6.25 mg/kg/injection, schedule: Q01DX009 (ip), vehicle: saline) was 93 % of control; the T/C (dose: 12.5 mg/kg/injection, schedule: Q01DX009 (ip), vehicle: saline) was 103 % of control; the T/C under setting [1] was 93 % of control; the T/C (dose: 25.0 mg/kg/injection, schedule: Q04DX003 (ip), vehicle: saline) was 97 % of control. Moreover, the T/C reads like this: (dose: 50.0 mg/kg/injection, schedule: Q04DX003 (ip), vehicle: saline) 116 % of control; under setting [2], 88 % of control and 91 % of control.

As for `O=S(=O)(Nc1cccc(C(F)(F)F)c1)c1cc(Cl)c(Cl)cc1Cl`, the T/C by setting is: (dose: 50.0 mg/kg/injection, schedule: Q01DX009 (ip), vehicle: carboxymethylcellulose (CMC)) 86 % of control; (dose: 75.0 mg/kg/injection, schedule: Q04DX003 (ip), vehicle: carboxymethylcellulose (CMC)) 94 % of control; (dose: 100.0 mg/kg/injection, schedule: Q04DX002 (ip), vehicle: carboxymethylcellulose (CMC)) 100 % of control and 102 % of control; (dose: 150.0 mg/kg/injection, schedule: Q04DX003 (ip), vehicle: carboxymethylcellulose (CMC)) 94 % of control; (dose: 200.0 mg/kg/injection, schedule: Q04DX002 (ip), vehicle: carboxymethylcellulose (CMC)) 97 % of control; (dose: 300.0 mg/kg/injection, schedule: Q04DX003 (ip), vehicle: carboxymethylcellulose (CMC)) 100 % of control. Also, the T/C (dose: 400.0 mg/kg/injection, schedule: Q04DX002 (ip), vehicle: carboxymethylcellulose (CMC)) was 101 % of control and 91 % of control.

Regarding `O=Cc1cc([N+](=O)[O-])ccc1O`, the T/C reads like this: (dose: 100.0 mg/kg/injection, schedule: Q01DX001 (ip), vehicle: other) 101 % of control; (dose: 200.0 mg/kg/injection, schedule: Q01DX001 (ip), vehicle: other) 97 % of control; (dose: 400.0 mg/kg/injection, schedule: Q01DX001 (ip), vehicle: other) 103 % of control.

`CN1CN(c2ccccc2)C2(CCN(CCC3Oc4ccccc4O3)CC2)C1=O`: the T/C (dose: 100.0 mg/kg/injection, schedule: Q01DX001 (ip), vehicle: Klucel (hydroxypropylcellulose) (HPC)) was 102 % of control; the T/C (dose: 200.0 mg/kg/injection, schedule: Q01DX001 (ip), vehicle: Klucel (hydroxypropylcellulose) (HPC)) is 98 % of control; the T/C (dose: 400.0 mg/kg/injection, schedule: Q01DX001 (ip), vehicle: Klucel (hydroxypropylcellulose) (HPC)) is 103 % of control.

Regarding `COc1cc(/C=N/NC(=O)C[n+]2ccccc2)cc(OC)c1`, the T/C was 119 % of control under setting [1]; 103 % of control (dose: 50.0 mg/kg/injection, schedule: Q01DX009 (ip), vehicle: saline); 116 % of control (dose: 100.0 mg/kg/injection, schedule: Q01DX009 (ip), vehicle: saline); 96 % of control under setting [2].

For `C/C=C(/C(=O)NC(N)=O)C(C)C`, the T/C (dose: 25.0 mg/kg/injection, schedule: Q01DX009 (ip), vehicle: Klucel (hydroxypropylcellulose) (HPC)) is 114 % of control; the T/C (dose: 50.0 mg/kg/injection, schedule: Q01DX009 (ip), vehicle: Klucel (hydroxypropylcellulose) (HPC)) was 97 % of control; the T/C (dose: 100.0 mg/kg/injection, schedule: Q01DX009 (ip), vehicle: Klucel (hydroxypropylcellulose) (HPC)) is 111 % of control; the T/C (dose: 200.0 mg/kg/injection, schedule: Q01DX009 (ip), vehicle: Klucel (hydroxypropylcellulose) (HPC)) is 103 % of control; the T/C (dose: 400.0 mg/kg/injection, schedule: Q01DX009 (ip), vehicle: Klucel (hydroxypropylcellulose) (HPC)) is 103 % of control.

With `COC(=O)c1ccc(Cn2ccc(=O)[nH]c2=O)cc1`, the T/C runs as follows: (dose: 50.0 mg/kg/injection, schedule: Q04DX003 (ip), vehicle: saline with Tween-80) 92 % of control; (dose: 100.0 mg/kg/injection, schedule: Q04DX003 (ip), vehicle: saline with Tween-80) 95 % of control; (dose: 200.0 mg/kg/injection, schedule: Q04DX003 (ip), vehicle: saline with Tween-80) 89 % of control.
